Laboratory results published in patent US11655239B2 (SHANGHAI INSTITUTE OF MATERIAL MEDICA, CHINESE ACADEMY OF …, priority 2019, dated 2023).

Tests used:
[1] = biological target: AXL (Homo sapiens (Human), UniProt P30530); experiment: Enzyme selectivity test (ELISA), AXL; type: biochemical
Experimental: (§1) 1) Enzyme reaction substrate Poly(Glu, Tyr) 4:1 was diluted to 20 μg/mL with potassium-free PBS (10 mM sodium phosphate buffer, 150 mM NaCl, pH 7.2-7.4), and the microtiter plate was coated with 125 μL/well and placed at 37° C. for 12-16 hours of reaction. The liquid in the well was discard. The plate was washed three times with T-PBS (potassium-free PBS containing 0.1% Tween-20, 200 μL/well), 5 minutes each time. The ELISA plate was dried in an oven at 37° C. for 1 to 2 hours.
(§2) 2) Reaction buffer (50 mM HEPES pH 7.4, 50 mM MgCl2, 0.5 mM MnCl2, 0.2 mM Na3VO4, 1 mM DTT) diluted ATP solution (49 μL) was added to each well, 1 μL of the compound to be tested was added to each well, and then 50 μL of DDR2 kinase domain recombinant protein diluted in the reaction buffer was added to start the reaction. Two control wells without ATP were set in each experiment. The plate placed on a shaker (100 rpm) at 37° C. for 1 hour of reaction. The liquid in the well was discarded and the plate was washed three times with T-PBS.
(§3) 3) Antibody PY99 dilution solution (the antibody was diluted 1:500 with T-PBS containing BSA 5 mg/mL) was added at 100 μL/well, and shaken on a shaker at 37° C. for 0.5 hour of reaction. The liquid in the well was discarded and the plate was washed three times with T-PBS.
(§4) 4) Horseradish peroxidase labeled goat anti-murine secondary antibody dilution solution (the antibody is diluted 1:2000 with T-PBS containing BSA 5 mg/ml) was added at 100 μL/well, and shaken on a shaker at 37° C. for 0.5 hour of reaction. The liquid in the well was discarded and the plate was washed three times with T-PBS.
(§5) 5) 2 mg/ml of OPD color developing solution [diluted with 0.1 M citric acid-sodium citrate buffer (pH=5.4) containing 0.03% H2O2] was added at 100 μL/well and reacted for 1 to 10 minutes at 25° C. in the dark.
(§6) 6) 2M H2SO4 was added at 50 μL/well to stop the reaction, and a tunable wavelength microplate reader VERSAmax was used for reading at a wavelength of 490 nm.
(§7) The IC50 value was obtained by four-parameter regression using the software that came with the microplate reader. […]

[2] = biological target: Flt-3 (Homo sapiens (Human), UniProt P36888); experiment: Enzyme selectivity test (ELISA), Flt-3; type: biochemical
Sequence of Flt-3 (P36888 27-993, species assumed): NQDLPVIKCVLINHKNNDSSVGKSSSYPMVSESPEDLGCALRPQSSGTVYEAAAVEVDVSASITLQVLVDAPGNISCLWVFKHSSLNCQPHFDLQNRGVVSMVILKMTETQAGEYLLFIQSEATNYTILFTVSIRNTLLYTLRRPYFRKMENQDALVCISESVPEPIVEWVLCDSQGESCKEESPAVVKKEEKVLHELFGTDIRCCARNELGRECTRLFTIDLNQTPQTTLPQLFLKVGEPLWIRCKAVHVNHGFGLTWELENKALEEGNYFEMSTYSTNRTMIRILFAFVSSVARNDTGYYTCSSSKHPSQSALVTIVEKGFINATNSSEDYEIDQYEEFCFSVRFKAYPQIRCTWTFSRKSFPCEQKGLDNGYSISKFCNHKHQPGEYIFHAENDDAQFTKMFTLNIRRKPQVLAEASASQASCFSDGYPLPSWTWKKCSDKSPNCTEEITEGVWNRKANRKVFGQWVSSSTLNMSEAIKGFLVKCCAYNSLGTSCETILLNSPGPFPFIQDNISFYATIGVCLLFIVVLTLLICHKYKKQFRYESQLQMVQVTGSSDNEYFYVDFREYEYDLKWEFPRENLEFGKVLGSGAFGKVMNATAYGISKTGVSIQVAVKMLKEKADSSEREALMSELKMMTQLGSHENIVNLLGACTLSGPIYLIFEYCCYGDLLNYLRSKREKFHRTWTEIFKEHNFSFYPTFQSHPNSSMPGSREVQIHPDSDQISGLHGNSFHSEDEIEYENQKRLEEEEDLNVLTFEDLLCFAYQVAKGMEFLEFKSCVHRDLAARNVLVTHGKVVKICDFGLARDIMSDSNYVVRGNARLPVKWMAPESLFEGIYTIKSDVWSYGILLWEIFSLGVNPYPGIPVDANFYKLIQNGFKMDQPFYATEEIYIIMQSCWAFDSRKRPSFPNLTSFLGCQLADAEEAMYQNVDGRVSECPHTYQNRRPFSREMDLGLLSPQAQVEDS
Experimental: as §1, §2, §3, §4, §5, §6, §7

[3] = biological target: Src (Homo sapiens (Human), UniProt P12931); experiment: Enzyme selectivity test (ELISA), Src; type: biochemical
Sequence of Src (P12931 whole entry, looked up, species assumed): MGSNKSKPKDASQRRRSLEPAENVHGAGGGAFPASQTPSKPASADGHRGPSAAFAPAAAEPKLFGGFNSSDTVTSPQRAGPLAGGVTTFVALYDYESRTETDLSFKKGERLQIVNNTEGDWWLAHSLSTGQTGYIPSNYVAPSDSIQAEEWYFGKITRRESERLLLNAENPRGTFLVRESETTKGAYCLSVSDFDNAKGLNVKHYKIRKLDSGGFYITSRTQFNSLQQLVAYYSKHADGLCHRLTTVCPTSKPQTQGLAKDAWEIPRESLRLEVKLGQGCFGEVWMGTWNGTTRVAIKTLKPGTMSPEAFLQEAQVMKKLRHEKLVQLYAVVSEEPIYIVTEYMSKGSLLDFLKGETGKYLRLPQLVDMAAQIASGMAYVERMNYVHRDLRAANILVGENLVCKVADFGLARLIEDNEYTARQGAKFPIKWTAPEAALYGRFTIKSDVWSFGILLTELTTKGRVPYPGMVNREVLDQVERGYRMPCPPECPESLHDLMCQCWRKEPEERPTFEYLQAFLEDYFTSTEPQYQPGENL
Experimental: as §1, §2, §3, §4, §5, §6, §7

[4] = biological target: PDGFR-β (Homo sapiens (Human), UniProt P09619); experiment: Enzyme selectivity test (ELISA), PDGFR-β; type: biochemical
Sequence of PDGFR-β (P09619 33-1106, species assumed): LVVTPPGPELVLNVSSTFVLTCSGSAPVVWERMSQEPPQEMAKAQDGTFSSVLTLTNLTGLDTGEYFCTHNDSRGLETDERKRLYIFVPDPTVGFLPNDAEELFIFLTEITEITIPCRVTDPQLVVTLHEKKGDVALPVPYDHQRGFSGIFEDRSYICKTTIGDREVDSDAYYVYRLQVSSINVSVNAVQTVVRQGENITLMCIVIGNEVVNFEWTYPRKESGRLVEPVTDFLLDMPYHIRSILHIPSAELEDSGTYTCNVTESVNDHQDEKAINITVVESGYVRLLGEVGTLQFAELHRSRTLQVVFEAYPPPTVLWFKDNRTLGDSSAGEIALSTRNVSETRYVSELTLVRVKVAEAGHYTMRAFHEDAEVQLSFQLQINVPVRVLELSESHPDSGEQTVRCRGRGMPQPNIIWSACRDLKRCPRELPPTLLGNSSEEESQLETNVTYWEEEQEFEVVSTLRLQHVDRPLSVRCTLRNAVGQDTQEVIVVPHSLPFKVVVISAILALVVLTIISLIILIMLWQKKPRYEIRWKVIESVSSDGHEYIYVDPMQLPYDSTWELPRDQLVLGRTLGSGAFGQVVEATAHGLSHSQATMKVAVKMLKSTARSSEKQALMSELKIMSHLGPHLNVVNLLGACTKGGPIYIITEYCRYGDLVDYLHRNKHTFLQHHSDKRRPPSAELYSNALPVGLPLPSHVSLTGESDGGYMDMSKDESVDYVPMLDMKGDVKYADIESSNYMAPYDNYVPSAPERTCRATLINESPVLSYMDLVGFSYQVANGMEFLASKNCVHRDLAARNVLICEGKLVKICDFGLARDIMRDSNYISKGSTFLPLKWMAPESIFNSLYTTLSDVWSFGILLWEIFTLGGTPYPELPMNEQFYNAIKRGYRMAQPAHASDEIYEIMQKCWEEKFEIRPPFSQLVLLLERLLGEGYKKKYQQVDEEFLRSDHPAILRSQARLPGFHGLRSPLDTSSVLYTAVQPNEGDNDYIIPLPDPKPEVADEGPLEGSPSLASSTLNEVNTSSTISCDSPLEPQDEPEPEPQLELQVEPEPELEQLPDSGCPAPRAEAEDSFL
Experimental: as §1, §2, §3, §4, §5, §6, §7

[5] = biological target: ALK (Homo sapiens (Human), UniProt Q9UM73); experiment: Enzyme selectivity test (ELISA), ALK; type: biochemical
Sequence of ALK (Q9UM73 19-1620, species assumed): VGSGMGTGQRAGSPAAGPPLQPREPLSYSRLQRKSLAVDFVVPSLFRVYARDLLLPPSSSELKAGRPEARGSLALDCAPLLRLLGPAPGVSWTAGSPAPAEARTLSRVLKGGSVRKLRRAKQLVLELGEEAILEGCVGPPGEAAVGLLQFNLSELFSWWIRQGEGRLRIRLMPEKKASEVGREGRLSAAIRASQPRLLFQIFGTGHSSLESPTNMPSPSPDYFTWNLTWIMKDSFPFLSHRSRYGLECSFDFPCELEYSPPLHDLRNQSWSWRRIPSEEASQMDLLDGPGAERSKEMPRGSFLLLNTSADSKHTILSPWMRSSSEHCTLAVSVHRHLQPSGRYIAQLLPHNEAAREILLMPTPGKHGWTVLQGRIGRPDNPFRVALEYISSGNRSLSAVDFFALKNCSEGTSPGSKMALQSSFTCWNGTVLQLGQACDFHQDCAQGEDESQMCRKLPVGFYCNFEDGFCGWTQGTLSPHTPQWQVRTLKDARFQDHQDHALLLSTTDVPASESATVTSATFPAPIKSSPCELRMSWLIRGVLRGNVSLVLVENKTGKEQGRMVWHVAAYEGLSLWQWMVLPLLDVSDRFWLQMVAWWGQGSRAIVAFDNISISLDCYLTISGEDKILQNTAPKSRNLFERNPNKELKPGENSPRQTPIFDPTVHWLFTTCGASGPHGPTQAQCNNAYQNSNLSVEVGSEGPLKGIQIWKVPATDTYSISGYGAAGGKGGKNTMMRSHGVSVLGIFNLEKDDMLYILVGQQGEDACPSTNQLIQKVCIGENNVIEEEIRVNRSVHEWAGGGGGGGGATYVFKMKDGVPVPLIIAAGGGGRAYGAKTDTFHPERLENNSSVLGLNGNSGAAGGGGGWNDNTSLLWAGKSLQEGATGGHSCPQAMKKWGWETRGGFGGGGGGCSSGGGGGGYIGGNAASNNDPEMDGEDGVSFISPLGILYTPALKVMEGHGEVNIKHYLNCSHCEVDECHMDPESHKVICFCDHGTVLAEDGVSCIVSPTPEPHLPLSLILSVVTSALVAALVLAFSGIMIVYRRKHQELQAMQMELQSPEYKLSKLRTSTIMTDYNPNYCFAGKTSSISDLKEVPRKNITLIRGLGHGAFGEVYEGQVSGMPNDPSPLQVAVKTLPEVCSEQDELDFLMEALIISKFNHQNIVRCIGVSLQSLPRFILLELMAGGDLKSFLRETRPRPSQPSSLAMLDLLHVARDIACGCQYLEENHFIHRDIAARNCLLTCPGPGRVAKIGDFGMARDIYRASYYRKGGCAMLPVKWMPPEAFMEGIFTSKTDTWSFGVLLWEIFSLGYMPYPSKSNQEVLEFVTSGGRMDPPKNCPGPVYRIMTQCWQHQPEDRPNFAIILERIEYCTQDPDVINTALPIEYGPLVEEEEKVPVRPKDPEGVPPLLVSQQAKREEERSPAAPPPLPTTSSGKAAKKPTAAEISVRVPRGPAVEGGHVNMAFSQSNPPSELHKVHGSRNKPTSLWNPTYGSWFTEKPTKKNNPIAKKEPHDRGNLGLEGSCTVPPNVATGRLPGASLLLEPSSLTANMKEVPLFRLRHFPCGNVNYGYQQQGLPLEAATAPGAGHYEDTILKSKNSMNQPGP
Experimental: as §1, §2, §3, §4, §5, §6, §7

[6] = tested on: pulmonary fibrosis induced by bleomycin in mice; experiment: Hydroxyproline level of the whole lung; type: in vivo, mouse; settings: Effect example 5; compared with the BLM control group
Experimental: The change in hydroxyproline was determined by using a hydroxyproline detection kit, the steps are as follows:
1) The wet weights of the lung tissues in different groups were accurately weighed, and the lung tissues were placed in a 20 ml centrifuge tube after weighing.
2) 1 ml of hydrolysate was added to a 20 ml centrifuge tube and the tube was placed in boiling water at a constant temperature for 20 minutes.
3) The pH of the sample was adjusted to 6.0-8.0 with the reagents provided in the kit.
4) The reagents in the centrifuge tube were made up to 10 ml with distilled water, and mixed thoroughly.
5) 5 ml of hydrolysate was taken from the centrifuge tube, an appropriate amount of activated carbon was added, mixed thoroughly, centrifuged at 3500 rpm for 10 minutes in a centrifuge, and 1 ml of upper supernatant layer was taken for subsequent monitoring.
6) Reagents 1, 2, and 3 were added in order, mixed thoroughly, and then placed in a water bath at 60° C. for 15 minutes, then placed at room temperature for 5 minutes, and centrifuged in a centrifuge at 3500 rpm for 10 minutes. […] Distilled water was used as the zero setting and the absorbance value of each sample at 550 nm wavelength was determined.
7) A standard curve was drew based on the absorbance of the standard, and used as a basis to determine the hydroxyproline content of each sample. […]

Sequence of AXL (P30530 26-894, species assumed): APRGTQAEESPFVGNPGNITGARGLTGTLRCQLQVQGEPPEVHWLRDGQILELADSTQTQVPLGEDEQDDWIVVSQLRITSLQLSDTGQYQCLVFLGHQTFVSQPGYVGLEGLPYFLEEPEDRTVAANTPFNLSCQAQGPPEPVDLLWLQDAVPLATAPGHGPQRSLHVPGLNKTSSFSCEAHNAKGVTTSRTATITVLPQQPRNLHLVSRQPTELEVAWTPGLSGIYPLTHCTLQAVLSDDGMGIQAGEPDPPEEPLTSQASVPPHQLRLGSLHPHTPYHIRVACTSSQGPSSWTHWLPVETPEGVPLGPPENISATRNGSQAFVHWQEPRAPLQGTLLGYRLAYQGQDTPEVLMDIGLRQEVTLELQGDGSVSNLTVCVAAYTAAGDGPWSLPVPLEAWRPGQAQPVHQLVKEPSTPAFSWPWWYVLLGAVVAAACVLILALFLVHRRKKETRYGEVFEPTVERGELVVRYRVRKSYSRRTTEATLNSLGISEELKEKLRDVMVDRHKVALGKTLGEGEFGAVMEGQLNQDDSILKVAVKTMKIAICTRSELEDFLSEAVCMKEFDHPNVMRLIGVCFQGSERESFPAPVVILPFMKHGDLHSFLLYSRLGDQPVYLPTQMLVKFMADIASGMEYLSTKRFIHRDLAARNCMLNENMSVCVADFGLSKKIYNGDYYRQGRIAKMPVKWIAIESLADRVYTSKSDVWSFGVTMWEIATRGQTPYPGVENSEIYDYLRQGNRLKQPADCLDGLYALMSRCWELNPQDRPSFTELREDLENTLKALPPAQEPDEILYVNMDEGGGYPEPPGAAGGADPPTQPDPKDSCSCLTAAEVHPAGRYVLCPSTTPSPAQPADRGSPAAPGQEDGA

**Q.** Which IC50 [1] does the source give for O=C(Nc1cccc(C(F)(F)F)c1)c1ccc(C2CC2)c(-c2ccc3nc(Nc4cnn(C5CC5)c4)ncc3c2)c1 [Compound S15, 4-cyclopropyl-3-(2-((1-cyclopropyl-1H-pyrazol-4-yl)amino)quinazolin-6-yl)-N-(3-(trifluoromethyl)phenyl)benzamide] here?
**A.** The IC50 was greater than 1000 nM.

**Q.** And the IC50 [2]?
**A.** Its IC50 is greater than 1000 nM.

**Q.** What about the IC50 [3] of the same molecule?
**A.** Its IC50 is greater than 100 nM.

**Q.** What about the IC50 [4] of the same molecule?
**A.** The IC50 was greater than 1000 nM.

**Q.** And the IC50 [5]?
**A.** The IC50 was greater than 1000 nM.

**Q.** What about the “hydroxyproline level of the whole lung” value [6] of the same molecule?
**A.** Its value is “significantly reduce the level of hydroxyproline”.
